Assay results taken from patent US9315517B2, “Imidazol-piperidinyl derivatives as modulators of kinase activity” (Merck Patent GmbH, priority 2012, dated 2016).

How the values were obtained:
[1] = biological target: T1, P70S6K (T412E mutant, Millipore) (Homo sapiens, UniProt P23443, T412E); test: P70S6K enzyme assay; format: biochemical; details: enzyme inhibition; 24 μM ATP, 90 min at 25° C., Caliper mobility shift
T1 construct: purchased Millipore
In short: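 P70S6K T412E mutant (3 nM) with 24 μM ATP and 1 μM FITC-labelled S6-derived peptide in 100 mM Hepes pH 7.5, 5 mM MgCl2, 1 mM DTT, 0.015% Brij; 90 min at 25 °C, EDTA-stopped. Phosphorylated product and substrate peptides were separated by microfluidic mobility shift to derive IC50.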

His-AKT (Full Length) = biological target: T2, His-AKT (Full Length) (Homo sapiens, UniProt P31749); test: AKT enzyme assay; format: biochemical; details: enzyme inhibition; 160 uM ATP, 90 min at 25° C., Caliper mobility shift
T2 construct: 0.1 ng/μl His-AKT (Full Length); His; purchased Invitrogen P2999
T2 sequence (P31749 whole entry): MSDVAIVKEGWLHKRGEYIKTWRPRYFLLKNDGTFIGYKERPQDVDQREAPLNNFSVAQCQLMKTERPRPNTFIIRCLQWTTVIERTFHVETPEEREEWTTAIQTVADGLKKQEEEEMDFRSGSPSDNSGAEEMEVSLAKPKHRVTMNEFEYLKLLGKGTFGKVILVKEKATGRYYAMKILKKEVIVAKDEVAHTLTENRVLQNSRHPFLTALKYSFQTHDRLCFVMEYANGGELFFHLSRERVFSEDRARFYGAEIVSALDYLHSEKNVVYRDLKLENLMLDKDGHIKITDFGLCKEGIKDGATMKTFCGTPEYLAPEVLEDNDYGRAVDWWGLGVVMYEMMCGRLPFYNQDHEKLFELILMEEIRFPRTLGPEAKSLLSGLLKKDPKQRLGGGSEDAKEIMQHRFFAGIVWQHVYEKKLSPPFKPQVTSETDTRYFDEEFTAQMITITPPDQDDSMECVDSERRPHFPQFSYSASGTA
In short: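 Full-length His-AKT (0.1 ng/μl) with 160 uM ATP and 1 μM FITC-AHA-GRPRTSSFAEG-NH2 peptide in 100 mM HEPES pH 7.5, 1 mM MgCl2, 1 mM DTT, 0.015% Brij-35, 90 min at 25° C, EDTA stop. Off-chip mobility shift measured percent substrate conversion; IC50 from sigmoidal dose-response.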

T1 sequence (P23443 whole entry T412E): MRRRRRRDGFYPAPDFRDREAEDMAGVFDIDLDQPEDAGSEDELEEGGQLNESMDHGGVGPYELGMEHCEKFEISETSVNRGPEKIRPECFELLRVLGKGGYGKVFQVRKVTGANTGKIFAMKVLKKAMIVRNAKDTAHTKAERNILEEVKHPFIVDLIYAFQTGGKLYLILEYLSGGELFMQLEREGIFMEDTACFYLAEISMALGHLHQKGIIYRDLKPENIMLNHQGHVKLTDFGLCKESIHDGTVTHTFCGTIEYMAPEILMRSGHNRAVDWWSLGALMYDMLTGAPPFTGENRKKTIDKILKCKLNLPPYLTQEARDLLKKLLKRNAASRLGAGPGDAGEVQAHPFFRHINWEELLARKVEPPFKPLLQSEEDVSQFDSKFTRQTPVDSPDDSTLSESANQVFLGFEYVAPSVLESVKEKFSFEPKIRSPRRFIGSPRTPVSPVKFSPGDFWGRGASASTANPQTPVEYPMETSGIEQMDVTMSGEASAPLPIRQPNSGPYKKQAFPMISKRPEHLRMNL

| SMILES | IC50 [1] | IC50 (His-AKT (Full Length)) |
| --- | --- | --- |
| Cc1ccc(-c2cn(CCN3CCCC3)c(C3CCN(c4ncnc5c4NC(=O)CN5)CC3)n2)cc1 [Compound A58, 4-{4-[4-(4-MethylPhenyl)-1-(2-pyrrolidin-1-yl-ethyl)-1H-imidazol-2-yl]-piperidin-1-yl}-7,8-dihydro-5H-pteridin-6-one] | > 1000 nM | > 1000 nM |
| O=C1CNc2ncnc(N3CCC(c4nc(-c5ccc(F)cc5)cn4CCN4CCCC4)CC3)c2N1 [Compound A59, 4-{4-[4-(4-FluoroPhenyl)-1-(2-pyrrolidin-1-yl-ethyl)-1H-imidazol-2-yl]-piperidin-1-yl}-7,8-dihydro-5H-pteridin-6-one] | 26 to 100 nM | 101 to 500 nM |
| COc1ccc(-c2cn(CCN3CCCC3)c(C3CCN(c4ncnc5c4NC(=O)CN5)CC3)n2)cc1 [Compound A61, 4-{4-[4-(4-MethoxyPhenyl)-1-(2-pyrrolidin-1-yl-ethyl)-1H-imidazol-2-yl]-piperidin-1-yl}-7,8-dihydro-5H-pteridin-6-one] | > 1000 nM | 501 to 1000 nM |
| O=C1CNc2ncnc(N3CCC(c4nc(C(F)(F)F)cn4CCN4CCCC4)CC3)c2N1 [Compound A63, 4-{4-[trifluoromethyl-1-(2-pyrrolidin-1-yl-ethyl)-1H-imidazol-2-yl]-piperidin-1-yl}-7,8-dihydro-5H-ptericlin-6-one] | > 1000 nM | > 1000 nM |

The remaining lines, values ahead:

| IC50 [1] | IC50 (His-AKT (Full Length)) | SMILES |
| --- | --- | --- |
| 26 to 100 nM | 26 to 100 nM | O=C1CNc2ncnc(N3CCC(c4nc(-c5cccc(Cl)c5)cn4CCN4CCCC4)CC3)c2N1 [Compound A57, 4-{4-[4-(3-ChloroPhenyl)-1-(2-pyrrolidin-1-yl-ethyl)-1H-imidazol-2-yl]-piperidin-1-yl}-7,8-dihydro-5H-pteridin-6-one] |
| 101 to 500 nM | 101 to 500 nM | COc1cccc(-c2cn(CCN3CCCC3)c(C3CCN(c4ncnc5c4NC(=O)CN5)CC3)n2)c1 [Compound A60, 4-{4-[4-(3-MethoxyPhenyl)-1-(2-pyrrolidin-1-yl-ethyl)-1H-imidazol-2-yl]-piperidin-1-yl}-7,8-dihydro-5H-pteridin-6-one] |
| 26 to 100 nM | 26 to 100 nM | Cc1cccc(-c2cn(CCN3CCCC3)c(C3CCN(c4ncnc5c4NC(=O)CN5)CC3)n2)c1 [Compound A62, 4-{4-[4-(3-MethylPhenyl)-1-(2-pyrrolidin-1-yl-ethyl)-1H-imidazol-2-yl]-piperidin-1-yl}-7,8-dihydro-5H-pteridin-6-one] |
